Assay results as given in BindingDB's records for doi:10.7270/Q2319T8T (The Scripps Research Institute Molecular Screening Center, 2007).
Counter-ions that a name gives are not always drawn.

What follows are molecules tested against Steroidogenic factor 1 (Homo sapiens, UniProt Q13285) (assay: blockers of SF-1 LBD reporter transcription – cell-based, CHO-K1, Gal4-SF-1 LBD, luciferase luminescence, dose response (AID 600)). Conditions: not given.
Chain of Steroidogenic factor 1 (Q13285 whole entry, the tested form may be a part): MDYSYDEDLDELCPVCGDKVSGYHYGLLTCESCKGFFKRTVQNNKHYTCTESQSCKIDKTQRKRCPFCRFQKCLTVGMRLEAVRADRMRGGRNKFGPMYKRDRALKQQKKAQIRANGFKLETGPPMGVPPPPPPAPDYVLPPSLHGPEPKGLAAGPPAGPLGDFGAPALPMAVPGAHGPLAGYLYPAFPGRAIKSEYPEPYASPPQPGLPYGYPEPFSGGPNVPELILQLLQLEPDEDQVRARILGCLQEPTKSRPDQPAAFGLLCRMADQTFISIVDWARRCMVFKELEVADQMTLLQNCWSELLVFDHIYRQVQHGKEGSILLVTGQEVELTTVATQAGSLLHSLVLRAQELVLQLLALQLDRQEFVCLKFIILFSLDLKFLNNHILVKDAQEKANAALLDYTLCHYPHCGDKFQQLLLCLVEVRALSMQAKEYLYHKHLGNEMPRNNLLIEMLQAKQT

Structure (SMILES) | IC50 [µM]
COc1cccc(NC(=O)CSc2nnc(-c3cc(C)n(-c4ccccc4)c3C)o2)c1 [2-[[5-(2,5-dimethyl-1-phenyl-3-pyrrolyl)-1,3,4-oxadiazol-2-yl]thio]-N-(3-methoxyphenyl)acetamide] | 3.4
CCOC(=O)c1c(N)sc(C(=O)Nc2ccc3c(c2)OCO3)c1C [2-amino-5-(1,3-benzodioxol-5-ylcarbamoyl)-4-methyl-thiophene-3-carboxylic acid ethyl ester] | > 3.67
CCN(CC)c1ccc2c(c1)OC(=N)C(C#N)C2c1cccnc1 (configuration not stated) [2-amino-7-(diethylamino)-4-(3-pyridinyl)-4H-1-benzopyran-3-carbonitrile] | > 3.67
CN(C)c1ccc2c(c1)OC(=N)C(C#N)C2c1cccc(F)c1 (configuration not stated) [2-amino-7-(dimethylamino)-4-(3-fluorophenyl)-4H-1-benzopyran-3-carbonitrile] | 10.9
COc1cc(C2c3ccc(N(C)C)cc3OC(=N)C2C#N)cc2c1OCO2 (configuration not stated) [2-amino-7-(dimethylamino)-4-(7-methoxy-1,3-benzodioxol-5-yl)-4H-1-benzopyran-3-carbonitrile] | > 3.67
CCc1nn2cc(-c3ccccc3)nc2s1 [2-ethyl-6-phenyl-imidazo[2,1-b][1,3,4]thiadiazole] | 4.41
CCCc1ccc(-c2ccc(F)c(N)c2)nc1 [2-fluoranyl-5-(5-propylpyridin-2-yl)aniline] | 7.35
c1ccc(-c2nc(NCc3ccco3)c3ccccc3n2)nc1 [2-furfuryl-[2-(2-pyridyl)quinazolin-4-yl]amine] | 6.79
O=C(c1ccc2c3c(cccc13)C(=O)N(O)C2=O)N1CCCCC1 [2-hydroxy-6-(piperidine-1-carbonyl)benzo[de]isoquinoline-1,3-dione] | 1.92
COc1cc(C2C3=C(N=C(C)C2C#N)c2ccccc2C3=O)cc(OC)c1OC (configuration not stated) [2-methyl-5-oxidanylidene-4-(3,4,5-trimethoxyphenyl)-1,4-dihydroindeno[1,2-b]pyridine-3-carbonitrile] | > 1.22
c1ccc(-c2cn3c4c(sc3n2)CCCC4)cc1 [2-phenyl-5,6,7,8-tetrahydroimidazo[2,1-b][1,3]benzothiazole] | 4.54
c1csc(CNc2ncnc3sccc23)c1 [2-thenyl(thieno[2,3-d]pyrimidin-4-yl)amine] | 3.49
c1ccc(-c2ccc(-c3ccccn3)nn2)nc1 [3,6-bis(2-pyridinyl)pyridazine] | > 11
Cc1ccc(-c2nc3nc4ccccc4nc3n2Cc2ccco2)cc1 [3-(2-furanylmethyl)-2-(4-methylphenyl)imidazo[4,5-b]quinoxaline] | 6.89
CCOc1ccc(-c2noc(CCC(=O)O)n2)cc1 [3-(3-p-phenetyl-1,2,4-oxadiazol-5-yl)propionic acid] | 3.89
CN(C)CC(C(=O)c1ccccc1)c1ccccc1 (configuration not stated) [3-(dimethylamino)-1,2-diphenyl-1-propanone;hydrochloride] | > 3.67
COc1cc(OC)cc(-c2cc3nc(C)c(CCC(=O)O)c(C)n3n2)c1 [3-[2-(3,5-dimethoxyphenyl)-5,7-dimethyl-6-pyrazolo[1,5-a]pyrimidinyl]propanoic acid] | 0.625
Cc1ccccc1NC(=O)N1CCCC(c2nc(-c3ccc(C(C)C)cc3)no2)C1 (configuration not stated) [3-[3-(4-Isopropyl-phenyl)-[1,2,4]oxadiazol-5-yl]-piperidine-1-carboxylic acid o-tolylamide] | 7.13
CN(C)C(=O)CCc1nc(-c2ccc(C(C)(C)C)cc2)no1 [3-[3-(4-tert-butylphenyl)-1,2,4-oxadiazol-5-yl]-N,N-dimethyl-propanamide] | 0.993
CCNC(=O)CCc1nc(-c2ccc(C(C)(C)C)cc2)no1 [3-[3-(4-tert-butylphenyl)-1,2,4-oxadiazol-5-yl]-N-ethyl-propanamide] | 0.0401
CNC(=O)CCc1nc(-c2ccc(C(C)(C)C)cc2)no1 [3-[3-(4-tert-butylphenyl)-1,2,4-oxadiazol-5-yl]-N-methyl-propanamide] | 0.058
CC(C)(C)c1ccc(-c2noc(CCC(N)=O)n2)cc1 [3-[3-(4-tert-butylphenyl)-1,2,4-oxadiazol-5-yl]propanamide] | 0.069
O=C(O)c1cccc(COc2ccccc2Cl)c1 [3-[(2-chloranylphenoxy)methyl]benzoic acid] | 0.69
O=C(O)c1cccc(COc2ccc(CO)cc2Cl)c1 [3-[(2-chloro-4-methylol-phenoxy)methyl]benzoic acid] | 0.547
COc1ccc(/N=c2\scc(-c3ccc(S(=O)(=O)N4CCOCC4)cc3)n2CCCO)cc1 [3-[(2Z)-2-[(4-methoxyphenyl)imino]-4-[4-(morpholin-4-ylsulfonyl)phenyl]-1,3-thiazol-3(2H)-yl]propan-1-ol] | 21.9
Cc1cc(C(=O)Nc2cccc(C(=O)O)c2)oc1C [3-[(4,5-dimethyl-2-furoyl)amino]benzoic acid] | 3.13
CCOc1ccc(OCc2cccc(C(=O)O)c2)cc1 [3-[(4-ethoxyphenoxy)methyl]benzoic acid] | 0.511
COc1ccc(OCc2cccc(C(=O)O)c2)cc1 [3-[(4-methoxyphenoxy)methyl]benzoic acid] | 0.421

Second part, the molecule after the results:

IC50 [µM] | Structure (SMILES)
1.07 | O=C(c1ccc(Cl)cc1)N1CCCCC(Sc2nnc(-c3ccc4c(c3)OCO4)o2)C1=O (configuration not stated) [3-[[5-(1,3-benzodioxol-5-yl)-1,3,4-oxadiazol-2-yl]sulfanyl]-1-(4-chlorobenzoyl)azepan-2-one]
> 0.0453 | Cc1ccsc1C(=O)OCC(=O)c1cc(C)n(CC2CCCO2)c1C (configuration not stated) [3-methyl-2-thiophenecarboxylic acid [2-[2,5-dimethyl-1-(2-oxolanylmethyl)-3-pyrrolyl]-2-oxoethyl] ester]
3.19 | Clc1ccc(-n2ncc3c(N4CCCCCC4)ncnc32)cc1 [4-(1-azepanyl)-1-(4-chlorophenyl)pyrazolo[3,4-d]pyrimidine]
6.17 | Cc1ccnc(NC(=O)CCCOc2cc(=O)n(C)c3ccccc23)c1 [4-(1-methyl-2-oxidanylidene-quinolin-4-yl)oxy-N-(4-methylpyridin-2-yl)butanamide]
9.93 | O=C(Nc1nc(-c2ccccn2)cs1)c1ccc(S(=O)(=O)N2CCCCC2)cc1 [4-(1-piperidinylsulfonyl)-N-[4-(2-pyridinyl)-2-thiazolyl]benzamide]
> 3.67 | COc1cccc(-c2nnc(NC(=O)c3ccc(S(=O)(=O)N4CC(C)OC(C)C4)cc3)o2)c1 (configuration not stated) [4-(2,6-dimethylmorpholin-4-yl)sulfonyl-N-[5-(3-methoxyphenyl)-1,3,4-oxadiazol-2-yl]benzamide]
6.8 | CC1CCCN(c2ncnc3c2cnn3-c2ccccc2)C1 (configuration not stated) [4-(3-methyl-1-piperidinyl)-1-phenylpyrazolo[3,4-d]pyrimidine]
> 99 | c1ccc(-n2nnc3c(N4CCOCC4)ncnc32)cc1 [4-(3-phenyl-7-triazolo[4,5-d]pyrimidinyl)morpholine]
5.65 | c1ccc(N2CCN(c3nc(-c4ccccn4)nc4ccccc34)CC2)cc1 [4-(4-phenyl-1-piperazinyl)-2-(2-pyridinyl)quinazoline]
> 3.67 | CCc1ccc2oc(-c3ccc(N)cc3)nc2c1 [4-(5-ethyl-1,3-benzoxazol-2-yl)aniline]
7.53 | CCOc1ccc(-c2cc(CCCC(=O)NCCc3ccc(OC)c(OC)c3OC)no2)cc1 [4-(5-p-phenetylisoxazol-3-yl)-N-[2-(2,3,4-trimethoxyphenyl)ethyl]butyramide]
5.67 | CCOC(=O)c1cnc(-n2nc(C)cc2C)nc1NC1CCCCC1 [4-(cyclohexylamino)-2-(3,5-dimethyl-1-pyrazolyl)-5-pyrimidinecarboxylic acid ethyl ester]
> 11 | CSCc1nnc(NC(=O)c2ccc(S(=O)(=O)N(CC(C)C)CC(C)C)cc2)o1 [4-(diisobutylsulfamoyl)-N-[5-[(methylthio)methyl]-1,3,4-oxadiazol-2-yl]benzamide]
> 33 | CC1CCCCC1NS(=O)(=O)c1ccc(S(=O)(=O)NCc2ccncc2)cc1 (configuration not stated) [4-N-(2-methylcyclohexyl)-1-N-(pyridin-4-ylmethyl)benzene-1,4-disulfonamide]

Same assay, conditions: inactive by the depositor's call

Structure (SMILES) | IC50 [µM]
N#CC(C#N)=c1ccc2c(c1)NC1(CCCCC1)N=2 [2-spiro[3H-benzimidazole-2,1'-cyclohexane]-5-ylidenepropanedinitrile] | 10.1
COc1cc(C(=O)Oc2c(CN3CCOCC3)cc(Cl)c3cccnc23)cc(OC)c1OC [3,4,5-trimethoxybenzoic acid [5-chloro-7-(4-morpholinylmethyl)-8-quinolinyl] ester] | 12.3
Cc1nn(-c2ccccc2)c(C)c1C(=O)OCC(=O)c1c(N)n(CC(C)C)c(=O)n(C)c1=O [3,5-dimethyl-1-phenyl-4-pyrazolecarboxylic acid [2-[4-amino-1-methyl-3-(2-methylpropyl)-2,6-dioxo-5-pyrimidinyl]-2-oxoethyl] ester] | 30.3
Cc1ccc(-c2cc3c(nn2)-c2ccccc2C3=O)cc1 [3-(4-methylphenyl)-5H-indeno[1,2-c]pyridazin-5-one] | 13
COc1ccc(NC(=O)N2CCCC(c3nc(-c4ccc(C(C)C)cc4)no3)C2)cc1 (configuration not stated) [3-[3-(4-Isopropyl-phenyl)-[1,2,4]oxadiazol-5-yl]-piperidine-1-carboxylic acid (4-methoxy-phenyl)-amide] | 14

Results, then the molecule that gave them:

IC50 [µM] | Structure (SMILES)
17.7 | CC1CCCCN1S(=O)(=O)c1ccc(C(=O)Nc2nnc(-c3cccs3)o2)cc1 (configuration not stated) [4-(2-methylpiperidin-1-yl)sulfonyl-N-(5-thiophen-2-yl-1,3,4-oxadiazol-2-yl)benzamide]
13.5 | COc1ccc(-c2nnc(NC(=O)c3ccc(S(=O)(=O)N4COCC4(C)C)cc3)o2)cc1 [4-(4,4-dimethyloxazolidin-3-yl)sulfonyl-N-[5-(4-methoxyphenyl)-1,3,4-oxadiazol-2-yl]benzamide]
10.9 | Cc1ccc2[nH]c3c(N4CCCCCC4)ncnc3c2c1 [4-(azepan-1-yl)-8-methyl-5H-pyrimido[5,4-b]indole]
16.5 | CCCCN(CCCC)S(=O)(=O)c1ccc(C(=O)Nc2nnc(CSC)o2)cc1 [4-(dibutylsulfamoyl)-N-[5-(methylsulfanylmethyl)-1,3,4-oxadiazol-2-yl]benzamide]
19.5 | CCN(C1CCCCC1)S(=O)(=O)c1ccc(S(=O)(=O)NCc2ccncc2)cc1 [4-N-cyclohexyl-4-N-ethyl-1-N-(pyridin-4-ylmethyl)benzene-1,4-disulfonamide]
